Data from patent US20190352610A1, “METHODS OF GENERATING HEPATIC MACROPHAGES AND USES THEREOF” (AGENCY FOR SCIENCE, TECHNOLOGY AND RESEARCH, priority 2017, published 2019).

How the values were obtained:
hPSC-KCs = assay: cytokine production (ELISA) and morphology upon LPS activation, hPSC-KCs; type: cell-based, human
Experimental: (§1) FIG. 3A are phase contrast images showing morphological changes in hPSC-KCs (upper panel) and NL-Mφ (lower panel) following LPS treatment. Scale bar: 100 μm. […] Supernatant from cell cultures were collected 16 hours after LPS treatment and cytokine production was measured using ELISA. IL-6 and TNF4α (after LPS treatment) production was not detected in PHHs. TNF4α production was not detected in NL-Mφ before LPS treatment. Data are presented after normalization to cell numbers and the bars represent mean±s.d. (n=3). Dashed lines represent fold differences between cytokine production before and after LPS treatment (folds are indicated on top of the dashed lines). Solid lines represent p<0.05 (two-tailed paired t-test). […] No significant differences were observed between IL-6 levels in hPSC-KCs and PHKCs in terms of basal levels (no LPS treatment) and LPS-induced levels. The fold increase in TNF4α production in hPSC-KCs (33 fold) was similar to the fold increase in PHKCs (35 fold). […] It has been reported that Kupffer cells show a lower extent of cytokine production upon cytokine stimulation.
For activation of hPSC-KCs to examine cytokine production, lipopolysaccharide (LPS) was added to the culture medium during the last 16 hours of culture. Medium was collected at the end of the incubation period and morphological changes and cytokine production upon LPS activation was analyzed. […] The fold increase in TNF4α production in hPSC-KCs (33 fold) was similar to the fold increase in PHKCs (35 fold) (FIG. 3C).

[1] = test system: NL-Mφ (non-liver macrophages); assay: cytokine production (ELISA) and morphology upon LPS activation, NL-Mφ; type: cell-based, human
Experimental: as §1
(§2) For activation of hPSC-KCs to examine cytokine production, lipopolysaccharide (LPS) was added to the culture medium during the last 16 hours of culture. Medium was collected at the end of the incubation period and morphological changes and cytokine production upon LPS activation was analyzed. […]

[2] = test system: PHKCs (primary human Kupffer cells); assay: cytokine production (ELISA) upon LPS activation, PHKCs; type: cell-based; details: LPS during last 16 hours of culture
Experimental: as §1, §2

[3] = test system: primary human hepatocytes (PHHs); assay: cytokine production (ELISA) upon LPS activation, PHHs; type: cell-based
Experimental: as §1, §2

[4] = test system: PHHs-hPSC-KCs co-cultures; assay: Alamar Blue cell viability, PHHs-hPSC-KCs co-cultures; type: cell-based, human; details: 24 hours treatment, PHHs-hPSC-KCs co-cultures vs PHHs monocultures, FIG. 5B
Experimental: (§3) PHHs monocultures, PHHs-PHKCs co-cultures (FIG. 5A), PHHs-hPSC-KCs co-cultures (FIG. 5B) and PHHs-hPSC-Mac co-cultures (FIG. 5C) treated with LPS (solid lines) or left untreated (dashed lines) were exposed to Acetaminophen (APAP) 16 hours after LPS treatment. 24 hours after addition of the drug, cell viability was assayed using Alamar Blue. Cell viability is expressed as percentage of viable cells compared to vehicle control (DMSO). Data are presented as mean±s.d (n=3). * indicates statistically significant differences between LPS-activated monoculture and co-culture; # indicate statistically significant differences between non-activated monoculture and co-culture (p<0.05).
(§4) Previous reports have shown the suppression of CYP expression and activity in human and rat hepatocytes when co-cultured with Kupffer cells. […] Therefore, it was analyzed if differences could be identified between PHHs-PHKCs co-cultures and PHHs monocultures in toxicity responses to paradigm hepatotoxicants, and if this difference could be recapitulated in PHHs-hPSC-KCs or PHHs-hPSC-Mac co-cultures. The monocultures and co-cultures were treated with the paradigm hepatotoxicant acetaminophen for 24 hours, and cell viability was measured using Alamar Blue assay. Cell viability was quantified as percentage of […] compared to vehicle control (DMSO).

PHHs-NL-Mφ co-cultures = assay: Alamar Blue cell viability, PHHs-NL-Mφ co-cultures; type: cell-based, human; details: 24 hours treatment, PHHs-NL-Mφ co-cultures vs PHHs monocultures, FIG. 5C
Experimental: as §3, §4

PHHs-PHKCs co-cultures = assay: Alamar Blue cell viability, PHHs-PHKCs co-cultures; type: cell-based, human; details: 24 hours treatment, PHHs-PHKCs co-cultures vs PHHs monocultures, FIG. 5A
Experimental: as §3, §4

Compound | morphological changes (hPSC-KCs; LPS activation, FIG. 3A) | fold induction of IL-6 production (hPSC-KCs; LPS during last 16 hours of culture, FIG. 3B) | fold increase in TNF4α production (hPSC-KCs; LPS during last 16 hours of culture, FIG. 3C) [fold] | levels of cytokines (IL-6, TNF4α) ([1]; NL-Mφ compared to PHKCs and hPSC-KCs, FIG. 3B and 3C) | morphological changes ([1]; NL-Mφ, LPS activation, FIG. 3A) | fold induction of IL-6 production ([2]; FIG. 3B) [fold] | fold increase in TNF4α production ([2]; FIG. 3C) [fold] | IL-6 production ([3]; FIG. 3B) | TNF4α production ([3]; upon LPS activation) | cell death compared to monoculture controls [4] | cell death compared to PHHs monocultures (PHHs-NL-Mφ co-cultures) | cell death compared to monoculture controls (PHHs-PHKCs co-cultures)
lipopolysaccharide [LPS] | from round to flat and spread cells | in the same range as that of the PHKCs | 33 | much higher levels | from round to flat and spread cells | 25 | 35 | below detectable levels | below detectable levels |  |  | 
CC(=O)Nc1ccc(O)cc1 [acetaminophen] |  |  |  |  |  |  |  |  |  | higher cell death | No difference in cell death | higher cell death
